Laboratory results taken from US20070117773A1, “Telomerase-inhibiting ENA oligonucleotide” (SANKYO COMPANY, LIMITED, priority 2004, published 2007).

Each substance was assayed on RNA oligonucleotide having the sequence of telomerase RNA (5′-UUGUCUAACCCUA-3′) (assay: Test for determining melting temperature (Tm) with telomerase RNA oligonucleotide). Details: 3.4 μM compound + 3.4 μM RNA oligonucleotide, 10 mM sodium phosphate buffer (pH 7.2), absorbance at 260 nm, 20° C. to 95° C.
Type: binding, human

Row | Substance | Tm (melting temperature)
1 | HO-T^e2s-A^e2s-G^e2s-G^e2s-G^e2s-T^e2s-T^e2s-A^e2s-CH2CH2OH [Example 4] | 62 °C
2 | HO-T^e2s-A^e2s-G^e2s-G^e2s-G^e2s-T^e2s-T^e2s-A^e2s-G^e2s-A^e2s-CH2CH2OH [Example 3] | 74 °C
3 | HO-T^e2s-A^e2s-G^e2s-G^e2s-G^e2s-T^e2s-T^e2s-A^e2s-G^e2s-A^e2s-C^e2s-A^e2s-CH2CH2OH [Example 2] | 87 °C
4 | HO-T^e2s-A^e2s-G^e2s-G^e2s-G^e2s-T^e2s-T^e2s-A^e2s-G^e2s-CH2CH2OH [Example 6] | 71 °C
5 | HO-T^e2s-A^e2s-G^e2s-G^e2s-G^e2s-T^e2s-T^e2s-A^e2s-G^e2s-C^e2s-A^e2s-A^e2s-CH2CH2OH [Example 1] | 85 °C
6 | HO-T^e2s-A^e2s-G^e2s-G^e2s-G^e2s-T^e2s-T^e2s-CH2CH2OH [Example 5] | 52 °C
